Data set [1] concerns head-twitch response (HTR) in male C57BL6 mice. Put plainly: Mouse head twitch response (HTR). The settings on record: I-2 10 mg/kg SC, M100907 0.5 mg/kg IP pretreatment. It is filed as in vivo. The method, then: FIG. 1. is a graph showing the effect of various doses of exemplary compound of Formula I, 1-2, on head-twitch response (HTR) in male C57BL6 mice. The mice were treated with compound I-2 (0.03-10 mg/kg, SC) by SC route (N=6 mice/dose), and the total number of head twitches were recorded over a 1 h period. Data is expressed as mean±SEM. The induction of head twitches elicited by 5-HT2A receptor agonists is believed to represent a behavioural proxy of their psychedelic effects.
Male C57BL6 mice were pretreated with the selective 5-HT2A receptor antagonist M100907 (0.5 mg/kg IP; also known as volinanserin) prior to the administration of exemplary compound of Formula I, 1-2 (10 mg/kg SC). […] Data is expressed as mean±SEM.
Male, C57BL/6J mice (body weight range 20-30 g) were dosed with the appropriate dose of test article, and following a 1-minute pre-treatment time, placed in individual observation chambers. Animals were visually assessed for the incidence head twitches continuously over a 1 hr period. […] Each head twitch was individually counted by a trained observer, and the data expressed as the mean±SEM of 6-10 mice per group. […]
The effect of various doses of exemplary compound of Formula I, 1-2, on head-twitch response (HTR) in male C57BL6 mice were measured. […] Data is expressed as mean±SEM. […]

The nature of data set [2]: In vivo pharmacokinetics in mice (IV and PO). The note with it: male C57BL/6 mice. The method, then:
Male C57BL/6 mice (25-30 g) from Charles River Labs were acclimatized for a minimum of 5 days prior to dosing. Body weights will be recorded on the day of dosing.
Animals dosed p.o. were deprived of food overnight and fed ˜2 h following dosing.
(§1) Formulations were administered intravenously (i.v.) via the tail vein or orally (p.o.) by gavage with disposable feeding needles.
(§2) Serial blood samples were collected via tail snip. Terminal blood samples will be collected under isoflurane anesthesia by cardiac puncture.
(§3) All blood samples were transferred into K2EDTA tubes on wet ice and centrifuged within 5 min (3200×g for 5 min at 4° C.) to obtain plasma. Plasma will be stored at −80° C. until analysis.
(§4) • i. Analysis software: Phoenix® WinNonlin® 8.2 (Pharsight, Certara, Mountainview, CA) • ii. Analysis methods: non-compartmental analysis, linear up/log down trapezoidal rule • iii. PK parameters: C0, t1/2, AUC0-last. AUC0-∞, CL, Vss, MRT, tmax(po), Cmax(po), F, as appropriate

A short description of data set [3]: In vivo pharmacokinetics in rats (IV and PO). The note with it: male SD rats. As for the experimental part:
as §1, §2, §3, §4

For the compound `[2H]C([2H])([2H])N1CCC[C@@H]1Cc1c[nH]c2cccc(O)c12` [Compound I-2, (R)-3-((1-(methyl-d3)pyrrolidin-2-yl)methyl)-1H-indol-4-ol], the “effect on head-twitch response (HTR) after pretreatment with selective 5-HT2A antagonist M100907” value in data set [1] is “completely blocked”.
As for `[2H]C([2H])(c1c[nH]c2cccc(OC)c12)[C@H]1CCCN1C([2H])([2H])[2H]` [Compound I-39, (R)-4-methoxy-3-((1-(methyl-d3)pyrrolidin-2-yl)methyl-d2)-1H-indole], the biotransformation after administration result is reported as “^(a)I-39 is hydrolysed to I-44 after IV administration” in data set [2] (IV (footnote Table 5)), “^(a)1-39 is hydrolysed to I-44 after IV administration” in data set [2] (PO table (footnote Table 6 prints IV)), “^(a)I-39 is hydrolysed to I-44 after IV administration” in data set [3] (IV (footnote Table 7)) and “^(a)I-39 is hydrolysed to I-44 after oral administration” in data set [3] (oral (footnote Table 8)).

The record behind these values is patent US20240336641A1, “3-PYRROLIDINE-INDOLE DERIVATIVES AS SEROTONERGIC PSYCHEDELIC AGENTS FOR THE TREATMENT OF CNS DISORDERS” (Mindset Pharma Inc., priority 2020, published 2024).
